This experiment deals with RAW264.7. The experiment in a line: Antiinflammatory activity in mouse RAW264.7 cells assessed as inhibition of LPS-stimulated nitric oxide production. In kind it is functional, cell-based.

Turning to `CC(=O)O[C@H]1C[C@H]2C[C@@]3(C[C@H](O)[C@@H]4C(C)(C)[C@@H](OC(C)=O)C[C@H](O)[C@@]4(C)[C@H]13)C(=O)O[C@]1(CCC2=O)C(=O)[C@]23C[C@@H]1C[C@H](OC(C)=O)[C@H]2[C@@]1(C)[C@H]([C@@H](O)C3)C(C)(C)[C@@H](OC(C)=O)C[C@@H]1O` (relative stereo), the IC50 was more than 50 µM.

Consider `CC(=O)O[C@H]1C[C@H]2C[C@@]3(C[C@H](O)[C@@H]4C(C)(C)[C@@H](OC(C)=O)C[C@H](O)[C@@]4(C)[C@H]13)C(=O)[C@]2(O)CC[C@@]1(O)C(=O)[C@]23C[C@@H]1C[C@H](O)[C@H]2[C@]1(C)[C@@H](OC(C)=O)C[C@H](OC(C)=O)C(C)(C)[C@H]1[C@@H](O)C3` (relative stereo), for which the IC50 is more than 50 µM.

On to `CC(=O)O[C@H]1C[C@H]2C[C@@]3(CC(=O)[C@@H]4C(C)(C)[C@@H](OC(C)=O)C[C@H](O)[C@@]4(C)[C@H]13)C(=O)O[C@]1(CCC2=O)C(=O)[C@]23C[C@@H]1C[C@H](OC(C)=O)[C@H]2[C@@]1(C)[C@H]([C@@H](O)C3)C(C)(C)[C@@H](OC(C)=O)C[C@@H]1O` (relative stereo), for which the IC50 is more than 50 µM.

With `CC(=O)O[C@H]1C[C@H]2C[C@@]3(CC(=O)[C@@H]4C(C)(C)[C@@H](OC(C)=O)C[C@H](O)[C@@]4(C)[C@H]13)C(=O)[C@]21CCC(=O)[C@H]2C[C@H](OC(C)=O)[C@@H]3[C@](C2)(C[C@H](O)[C@@H]2C(C)(C)[C@@H](OC(C)=O)C[C@H](O)[C@]23C)C(=O)O1` (relative stereo), the half-inhibitory concentration (IC50) is more than 50 µM.

On to `N=C(N)NN` [PIMAGEDINE], for which the IC50 came to 27.5 µM.

As to `CC(=O)O[C@H]1C[C@H]2C[C@@]3(C[C@H](O)[C@@H]4C(C)(C)[C@@H](OC(C)=O)C[C@H](O)[C@@]4(C)[C@H]13)C(=O)[C@]21CCC2=C(O1)[C@]13C[C@@H]2C[C@H](OC(C)=O)[C@H]1[C@@]1(C)[C@H]([C@@H](O)C3)C(C)(C)[C@@H](OC(C)=O)C[C@@H]1O` (relative stereo), the half-inhibitory concentration (IC50) was more than 50 µM.

Broadly, the IC50 is the concentration at which inhibition is half-maximal.

(Values after ChEMBL document CHEMBL1938271, “Dimeric ent-kaurane diterpenoids from Isodon excisus” (J Nat Prod, 2011).)
